Assay in all cases: NCI anticancer screen, dose series, 48 h
The test system of test [1] is BT-549.
Test [2] concerns KM-20L2.
Test [3] relates to SNB-78.
For test [4], the system named is DMS-273.
For test [5], the system named is HOP-18.
The subject of test [6] is LXFL 529.
Test [7] deals with DLD-1.
Test [8] has as its system XF498.

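Assay format: 96-well plates, 48-hour exposure. GI50 is the concentration that inhibits growth by half.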 The source made the active and inactive calls. Rule as the data show it: active = GI50 up to about 1.1 µM and inactive = higher. Some results are limits rather than exact numbers.

On to `Cc1nc2c(O)cccc2c(=O)[nH]1`, for which the GI50 in test [1] was 174 µM (inactive).
Still for that read-out and setting: to `O=C1C(c2c(O)[nH]c3ccc(Br)cc23)=Nc2ccccc21` belongs 19.5 µM (inactive); to `O=C(O)c1ccc(C(=O)c2ccccc2)c(C(=O)O)c1`, > 100 µM (inactive).
For `COc1ccc(NCc2cnc3nc(N)nc(N)c3c2C)cc1`, in test [1], the GI50 is > 100 µM (inactive).
Take `COC(=O)C(NC(=O)C(CC(=O)OC(C)(C)C)NC(=O)OC(C)(C)C)C(O)c1ccccc1` (centres undefined): the GI50 in test [1] was > 100 µM (inactive).
Regarding `NC(=S)N/N=C1\C(=O)N(CCc2ccccc2)C(=O)C1C(=O)NCCc1ccccc1` (centres undefined), the GI50 in test [2], in test [3], in test [4], in test [5] and in test [6] was > 100 µM (inactive) each time.
`Cc1ccccc1/N=N/c1ccc(N/N=C2/CCCNC2=O)c(C)c1`: the GI50 in test [1] is > 100 µM (inactive).
On to `CC[C@@]1(OP(=O)(O)O)C(=O)OCc2c1cc1n(c2=O)Cc2cc3ccccc3nc2-1`, for which the GI50 in test [2] is 1 µM (active); in test [3], 4.63 µM (inactive); in test [7], 1.11 µM (active); in test [4] it was 0.0513 µM (active); in test [5] it was 1.08 µM (active); in test [6], 1.73 µM (inactive). The GI50 in test [1] was 0.201 µM (active); in test [8], 0.221 µM (active).
For `O=C1NC(=O)/C(=C\c2ccncc2)N1`, in test [1], the GI50 was > 100 µM (inactive).
The same measure, in the same setting: to `OCCCCCCCCCCCOc1ccc(C2OCC3(CC=CCC3)CO2)cc1` (centres undefined) belongs 15 µM (inactive); to `O=C(CC(=O)N1N=C(N(c2ccccc2)c2ccccc2)CC1c1ccccc1)Nc1ccccc1` (centres undefined), > 100 µM (inactive).
Consider `O=c1cc(CO)oc2c3c(cc(O)c12)OCC(COC1OC(CO)C(O)C(O)C1O)=CC3` (centres undefined), for which the GI50 in test [2], in test [3], in test [7], in test [4], in test [5] and in test [6] was > 100 µM (inactive) each time.
`COc1ccc(C(=O)C#Cc2cnc(OC)nc2OC)cc1`: the GI50 in test [1] is 1.6 µM (inactive).
Regarding `CN(CC1NCCCC1O)C12CC3CC(CC(C3)C1)C2` (centres undefined), the GI50 in test [2], in test [7], in test [4], in test [5], in test [6] and in test [8] was > 100 µM (inactive) throughout.
Take `Nc1cnc2c(c1)c(=O)nc1n2CCS1`: the GI50 in test [1] is > 100 µM (inactive).
As to `N#Cc1c(-c2ccccc2)c(/C=N/c2ccc(F)cc2)c(=O)n2c1[nH]c1ccccc12`, the GI50 in test [1] is 35.5 µM (inactive).
Still for that read-out and setting: to `CCCCC(/C=C\COC1CCCCO1)=C/C(=O)OCC` (centres undefined) belongs > 100 µM (inactive); to `C=C(C)C(CC=C(C)C)CC12CC(CC=C(C)C)C(C)(C)C(CC=C(C)C)(C(=O)C(Cc3ccc(O)c(O)c3)=C1O)C2=O` (centres undefined), > 100 µM (inactive); to `O=C1C([P+](c2ccccc2)(c2ccccc2)c2ccccc2)=C([O-])C(=Cc2ccc(Cl)c(Cl)c2)C([O-])=C1[P+](c1ccccc1)(c1ccccc1)c1ccccc1`, 2.27 µM (inactive).
On to `Cc1cc(C)nc(NS(=O)(=O)c2ccc(NC(=O)NC(F)(F)F)cc2)n1`, for which, in test [1], the GI50 is > 100 µM (inactive).
Take `Clc1ccc(C(n2cc(Br)cn2)n2cc(Br)cn2)cc1`: the GI50 in test [3] was 19.7 µM (inactive); in test [4] it was 18.8 µM (inactive); in test [5] it was 18.1 µM (inactive); in test [6], 14.9 µM (inactive).
As to `CC(C)OC(=O)[C@H]1ON2O[C@H](O[C@@H]3CCCC[C@H]3c3ccccc3)C([Si](C)(C)c3ccccc3)[C@H]3OC(=O)[C@@H]1C32` (some centres undefined), the GI50 in test [1] was > 100 µM (inactive).
`C=C1C(=O)OC2/C=C(\C)C(OC(C)=O)C3OC3C(C)(O)CC(OC(=O)/C(C)=C/C)C12` (centres undefined): the GI50 in test [2] was 4.46 µM (inactive); in test [3], 8.3 µM (inactive); in test [4], 24.5 µM (inactive); in test [5], 11.3 µM (inactive); in test [6], 2.44 µM (inactive); in test [8], 6.87 µM (inactive).
On to `C=Cc1ccccc1C1C(C(=O)OCC)=C(C)N=C2OC(C(=O)OC)C(=O)N21` (centres undefined), for which the GI50 in test [1] was > 100 µM (inactive).
As to `Oc1ccc2c(c1)c1c(n2CCN2CCOCC2)-c2ccccc2CC1`, in test [1], the GI50 is 33.6 µM (inactive).
Take `COc1cc(Cl)c2c3c(c(C(=O)c4ccccc4)oc13)CCC2`: the GI50 was > 100 µM (inactive) in test [2]; > 100 µM (inactive) in test [3]; > 100 µM (inactive) in test [7]; 69.7 µM (inactive) in test [4]; > 100 µM (inactive) in test [5]; > 100 µM (inactive) in test [6]. In addition, the GI50 in test [8] was > 100 µM (inactive).
In the case of `CCOC(=O)/C(O)=C(/c1n[nH]c(=O)c2ccccc12)[N+](=O)[O-]`, the GI50 in test [2], in test [3], in test [7], in test [4], in test [5] and in test [6] was > 100 µM (inactive) throughout.
Regarding `Cc1cc(Cl)ccc1NC(=O)C1C(=O)N(c2ccc(Cl)cc2C)C(=O)/C1=N\N` (centres undefined), the GI50 was 36 µM (inactive) in test [2]; 74.8 µM (inactive) in test [3]; 40.6 µM (inactive) in test [5]; 44 µM (inactive) in test [6]; 65 µM (inactive) in test [8].
`CSc1s[s+]c(SC)c1-c1ccccc1`: in test [1], the GI50 is 13.9 µM (inactive).
With `Cc1c2n(c(=O)[nH]c1=O)C1OC(CO)C(N=[N+]=[N-])C1O2` (centres undefined), the GI50 in test [2], in test [3], in test [7], in test [4] and in test [6] was > 100 µM (inactive) in each case.
As to `O=C(O)c1ccc(C=C2Sc3ccccc3S2)cc1`, in test [1], the GI50 is 62.7 µM (inactive).
On the same count and under the same terms, to `O=C1OCC2=Nc3cccc4cccc(c34)N12` belongs > 100 µM (inactive).
With `OCCNCCOc1ccc(/C(=C(/Cl)c2ccccc2)c2ccccc2)cc1`, the GI50 in test [2] was 2.47 µM (inactive); in test [3], 8.51 µM (inactive); in test [7], 12.1 µM (inactive); in test [5] it was 19.3 µM (inactive); in test [6], 6.92 µM (inactive); in test [8], 2.9 µM (inactive).
With `CN1CC=C(OP(=O)(NCc2ccccc2)N(CCCl)CCCl)CC1` (centres undefined), the GI50 in test [1] is > 100 µM (inactive).
Regarding `C=C[C@]1(C)CC[C@]2(C)C(CC[C@@]3(C)C2C[C@H](O)[C@H](O)[C@@]3(C)O)C1` (some centres undefined), the GI50 in test [1] was > 100 µM (inactive).
Consider `Cc1ccc(-c2nc(N/N=C/C=C/c3ccccc3)c3ccccc3n2)cc1`, for which the GI50 in test [1] is 23.1 µM (inactive).
Regarding `Cc1c(NC(=O)c2cc([N+](=O)[O-])cc([N+](=O)[O-])c2)c(=O)n(-c2ccccc2)n1C`, the GI50 in test [1] is > 100 µM (inactive).
As to `Cc1nn(C(=O)c2ccc(Cl)cc2)c2c1C(c1ccc([N+](=O)[O-])cc1)SC(=N)N2` (centres undefined), the GI50 in test [1] was > 10 µM (inactive).
In the case of `CN(/N=C/c1ccnc2ccccc12)c1ccc(Cl)cc1[N+](=O)[O-]`, the GI50 in test [1] was 6.95 µM (inactive).
As to `CN1C(=O)C2CCCC(=O)N2c2cccnc21` (centres undefined), the GI50 in test [1] was > 100 µM (inactive).
On to `CCO/C=C1\N=C(c2ccc(Cl)c(Cl)c2)OC1=O`, for which the GI50 in test [2], in test [3], in test [7], in test [4], in test [6] and in test [8] was > 100 µM (inactive) throughout.
For the molecule `O=c1c2ccccc2c2nc3ccccc3nc2n1C1CCCCC1`, the GI50 in test [2], in test [3], in test [4] and in test [6] was > 100 µM (inactive) in each case.
Regarding `CO/N=C(\C(=O)Nc1cncs1)c1csc(N)n1`, the GI50 in test [1] is > 10 µM (inactive).
Take `C/C(=N\NC(=S)Nc1ccc([N+](=O)[O-])cc1)c1nc2cccnc2[nH]1`: the GI50 in test [1] was 0.452 µM (active).
The same measure, in the same setting: under `N#CC(C#N)=C1CCCCc2ccc([N+](=O)[O-])cc21` stands > 100 µM (inactive); under `CC1(C)C2CCC(CN)(C2)C1N` (centres undefined), > 100 µM (inactive).
On to `CCCCCc1cc2cc3c(c(O)c2c(=O)[nH]1)C1(CCC3)C(=O)c2c(O)ccc(O)c2C1=O`, for which the GI50 in test [1] is > 100 µM (inactive).
Take `CCC1(OC(=O)CN2CCN(CCO)CC2)C(=O)OCc2c1cc1n(c2=O)Cc2cc3ccccc3nc2-1` (centres undefined): the GI50 in test [2] was 1.22 µM (inactive); in test [3] it was 5.25 µM (inactive); in test [7], 6.62 µM (inactive); in test [4] it was 0.0652 µM (active); in test [5] it was 0.76 µM (active); in test [6], 6.05 µM (inactive). Moreover, the figures for the GI50 in test [1] and in test [8] were 0.736 µM (active) and 2.16 µM (inactive), respectively.
For `CC(C)(C)OC(=O)N/C(C=O)=C\C1CCCCC1`, the GI50 in test [1] is 25.2 µM (inactive).
On the same count and under the same terms, under `COC(=O)[C@H](Cc1ccccc1)NC(=O)N(CCN(CCC#N)C(=O)N[C@H](C(=O)OC)C(C)C)c1ccccc1` stands > 100 µM (inactive); under `CCOC(=O)c1nc2c3c(ncn2n1)Oc1c(c(-c2ccccc2)nn1-c1ccccc1)C3c1ccc(Cl)cc1` (centres undefined), > 100 µM (inactive).
Same read-out and setting: under `CC(=O)c1ccc(/N=N/N2CCCC2)cc1` stands > 100 µM (inactive); under `COc1cc2c(cc1OC)-c1[nH]c3ccc(C#N)cc3c1CC(=O)N2`, 10.5 µM (inactive).
On the same count and under the same terms, to `BrC(c1cccc2ccccc12)c1cccc2ccccc12` belongs 21.4 µM (inactive).
For `COc1ccc2c(c1)/C(=C\c1cccc(/C=C3/C(=O)Nc4ccc(OC)cc43)n1)C(=O)N2`, the GI50 in test [1] is 0.91 µM (active).
With `c1ccc2c(c1)[nH]c1c[nH]c3c4cccnc4nc-3c12`, the GI50 is 23.4 µM (inactive) in test [3], 15.6 µM (inactive) in test [7], 18.6 µM (inactive) in test [5] and 18.5 µM (inactive) in test [6].
For `O=C(CCCn1ccnc1[N+](=O)[O-])NCCn1cnc([N+](=O)[O-])n1`, in test [1], the GI50 was > 100 µM (inactive).
Same read-out and setting: to `COc1cc(O)c(C(=O)/C=C/c2ccccc2)c(OC)c1` [FLAVOKAWAIN B] belongs 4.47 µM (inactive).

The values are drawn from ChEMBL document CHEMBL1201862, “PubChem BioAssay data set” (2004).
